In ChEMBL document CHEMBL1201862, “PubChem BioAssay data set” (2004):
Where “and” joins values, the source holds several entries; their conditions need not be identical. Equal entries are not always repeated.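 Values below derive from 48-hour exposures of cells grown in 96-well plates, with endpoints linearly interpolated between the two concentrations bracketing the appropriate inhibition level. At the GI50, growth is halved.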 Calls of active or inactive are those of the source. Cut-off read from the data, not from the text of the source: active = GI50 up to about 1.1 µM and inactive = higher.

Legend:
Experiment in all cases: NCI tumour cell line growth inhibition, 48 h
HCT-15 = tested on: HCT-15
MCF7 = tested on: MCF7
MOLT-4 = tested on: MOLT-4
OVCAR-5 = tested on: OVCAR-5
PC-3 = tested on: PC-3
A549 = tested on: A549
OVCAR-3 = tested on: OVCAR-3
DU-145 = tested on: DU-145
HT-29 = tested on: HT-29
TK-10 = tested on: TK-10
MDA-MB-435 = tested on: MDA-MB-435
NCI-H522 = tested on: NCI-H522
HCT-116 = tested on: HCT-116
SF-295 = tested on: SF-295
EKVX = tested on: EKVX
SF-268 = tested on: SF-268
T47D = tested on: T47D
SF-539 = tested on: SF-539
SK-MEL-2 = tested on: SK-MEL-2

For `O=C1c2ccccc2C(=O)c2c(NCC3CO3)ccc(NCC3CO3)c21` (stereo unspecified), the GI50 (HCT-15) was 3.47 µM, the GI50 (MCF7) was 0.112 µM (active) and the GI50 (MOLT-4) was 0.0119 µM (active). The GI50 (OVCAR-5) was 4.54 µM (inactive), the GI50 (PC-3) was 1.91 µM (inactive) and the GI50 (A549) was 2.4 µM (inactive). For the same compound, the GI50 (OVCAR-3) was 4.54 µM (inactive), the GI50 (DU-145) was 3.58 µM (inactive) and the GI50 (HT-29) was 1.88 µM (inactive). For the same compound, the GI50 (TK-10) was 19 µM (inactive), the GI50 (MDA-MB-435) was 1.22 µM (inactive) and the GI50 (NCI-H522) was 5.24 µM (inactive). For the same compound, the GI50 (HCT-116) was 0.171 µM (active), the GI50 (SF-295) was 3.59 µM (inactive) and the GI50 (EKVX) was > 32.2 µM (inactive). The GI50 (SF-268) was 0.254 µM (active), the GI50 (T47D) was 4.2 µM (inactive) and the GI50 (SF-539) was 1.91 µM (inactive).
In the case of `CCSCCCSCCSCC`, the GI50 (HCT-15) is reported as greater than 100 µM, the GI50 (MCF7) is reported as > 100 µM (inactive) and the GI50 (MOLT-4) is reported as 17.2 µM (inactive). The GI50 (OVCAR-5) was > 100 µM (inactive), the GI50 (PC-3) was > 100 µM (inactive) and the GI50 (A549) was > 100 µM (inactive). The GI50 (OVCAR-3) was > 100 µM (inactive), the GI50 (DU-145) was > 100 µM (inactive) and the GI50 (HT-29) was > 100 µM (inactive). The GI50 (TK-10) was > 100 µM (inactive), the GI50 (MDA-MB-435) was > 100 µM (inactive) and the GI50 (NCI-H522) was > 100 µM (inactive). The GI50 (HCT-116) was > 100 µM (inactive), the GI50 (SF-295) was > 100 µM (inactive) and the GI50 (EKVX) was > 100 µM (inactive). For the same compound, the GI50 (SF-268) was > 100 µM (inactive), the GI50 (T47D) was > 100 µM (inactive) and the GI50 (SF-539) was > 100 µM (inactive).
For `N[C@H](CCC(=O)NCP(=O)(O)O)C(=O)O`, the GI50 (SK-MEL-2) was > 100 µM (inactive), the GI50 (HCT-15) was greater than 100 µM and the GI50 (MCF7) was > 100 µM (inactive). For the same compound, the GI50 (MOLT-4) was > 100 µM (inactive), the GI50 (OVCAR-5) was > 100 µM (inactive) and the GI50 (PC-3) was > 100 µM (inactive). For the same compound, the GI50 (A549) was > 100 µM (inactive), the GI50 (OVCAR-3) was > 100 µM (inactive) and the GI50 (HT-29) was > 100 µM (inactive). For the same compound, the GI50 (TK-10) was 10.5 µM (inactive), the GI50 (MDA-MB-435) was > 100 µM (inactive) and the GI50 (NCI-H522) was > 100 µM (inactive). For the same compound, the GI50 (HCT-116) was > 100 µM (inactive), the GI50 (SF-295) was 5.33 µM (inactive) and the GI50 (EKVX) was > 100 µM (inactive). The GI50 (T47D) was > 100 µM (inactive) and the GI50 (SF-539) was > 100 µM (inactive).
With `COC(=O)[C@]1(C)CCC[C@@]2(C)C1CC[C@@]13C=C(C(C)C)[C@@H](CC1=O)CC23` (stereo partly specified) the GI50 (HCT-15) was 21.1 µM, the GI50 (MCF7) was 26.1 µM (inactive) and the GI50 (MOLT-4) was 15 µM (inactive). The GI50 (PC-3) was 21.6 µM (inactive), the GI50 (A549) was 29.2 µM (inactive) and the GI50 (OVCAR-3) was 21.4 µM (inactive). For the same compound, the GI50 (DU-145) was 38.4 µM (inactive), the GI50 (HT-29) was 18.2 µM (inactive) and the GI50 (TK-10) was 43.8 µM (inactive). For the same compound, the GI50 (MDA-MB-435) was 35.6 µM (inactive), the GI50 (NCI-H522) was 18.6 µM (inactive) and the GI50 (HCT-116) was 20.4 µM (inactive). The GI50 (SF-295) was 30.6 µM (inactive), the GI50 (EKVX) was 27.4 µM (inactive) and the GI50 (SF-268) was 32.5 µM (inactive). The GI50 (T47D) was 32.4 µM (inactive) and the GI50 (SF-539) was 20.9 µM (inactive).
For `FC(F)(F)c1ccc2nc(Sc3ccc4ccccc4c3)cnc2c1`, the GI50 (SK-MEL-2) was 23.1 µM (inactive), the GI50 (HCT-15) was 44.7 µM and the GI50 (MCF7) was 45 µM (inactive). The GI50 (MOLT-4) was 24.5 µM (inactive), the GI50 (OVCAR-5) was > 100 µM (inactive) and the GI50 (A549) was > 100 µM (inactive). The GI50 (DU-145) was > 100 µM (inactive), the GI50 (HT-29) was 87.3 µM (inactive) and the GI50 (TK-10) was > 100 µM (inactive). The GI50 (MDA-MB-435) was 55.2 µM (inactive), the GI50 (NCI-H522) was 37.5 µM (inactive) and the GI50 (HCT-116) was 46 µM (inactive). The GI50 (SF-295) was 65.2 µM (inactive), the GI50 (EKVX) was 94 µM (inactive) and the GI50 (SF-268) was > 100 µM (inactive). For the same compound, the GI50 (T47D) was 23.1 µM (inactive) and the GI50 (SF-539) was 36.3 µM (inactive).
For `COC1(OC)C[C@H](C)[C@@]23O[C@]24c2cc(O)c5c(c2N[C@H]3C#C/C=C\C#C[C@]14O)C(=O)c1ccccc1C5=O`, the GI50 (HCT-15) was 0.005 µM, the GI50 (MCF7) was 0.005 µM (active) and the GI50 (OVCAR-5) was 0.00692 µM (active). The GI50 (PC-3) was 0.005 µM (active), the GI50 (A549) was 0.005 µM (active) and the GI50 (OVCAR-3) was 0.0431 µM (active). For the same compound, the GI50 (DU-145) was 0.005 µM (active), the GI50 (HT-29) was 0.00655 µM (active) and the GI50 (TK-10) was 0.0245 µM (active). The GI50 (MDA-MB-435) was 0.00703 µM (active), the GI50 (NCI-H522) was 0.00635 µM (active) and the GI50 (HCT-116) was 0.005 µM (active). For the same compound, the GI50 (SF-295) was 0.005 µM (active), the GI50 (EKVX) was 0.0286 µM (active) and the GI50 (SF-268) was 0.005 µM (active). For the same compound, the GI50 (T47D) was 0.005 µM (active).
`CCCCC(C)(C/C=C/[C@@H]1[C@@H](C(O)CCCCCC(=O)OC)C(=O)C[C@H]1O[Si](C)(C)C(C)(C)C)O[Si](C)(C)C` (stereo partly specified) was tested, and the GI50 (SK-MEL-2) was 58.7 µM (inactive), the GI50 (HCT-15) was 76.2 µM and the GI50 (MCF7) was 42 µM (inactive). The GI50 (MOLT-4) was 19.7 µM (inactive), the GI50 (OVCAR-5) was > 100 µM (inactive) and the GI50 (PC-3) was 34.9 µM (inactive). For the same compound, the GI50 (A549) was 70.8 µM (inactive), the GI50 (OVCAR-3) was 91 µM (inactive) and the GI50 (DU-145) was > 100 µM (inactive). The GI50 (HT-29) was 78.5 µM (inactive), the GI50 (TK-10) was 97.7 µM (inactive) and the GI50 (MDA-MB-435) was 74.3 µM (inactive). The GI50 (NCI-H522) was 23.2 µM (inactive), the GI50 (HCT-116) was 81.1 µM (inactive) and the GI50 (SF-295) was > 100 µM (inactive). The GI50 (EKVX) was > 100 µM (inactive), the GI50 (SF-268) was 39.1 µM (inactive) and the GI50 (SF-539) was > 100 µM (inactive).
With `COc1ccc(/C=C2/N/C(=N\N=C/C(O)C(O)C(O)CO)NC2=O)cc1` (stereo unspecified) the GI50 (SK-MEL-2) was > 100 µM (inactive), the GI50 (HCT-15) was greater than 100 µM and the GI50 (MCF7) was 15.9 µM (inactive). The GI50 (MOLT-4) was 88.1 µM (inactive), the GI50 (OVCAR-5) was > 100 µM (inactive) and the GI50 (A549) was > 100 µM (inactive). For the same compound, the GI50 (DU-145) was > 100 µM (inactive) and 71.3 µM (inactive), the GI50 (HT-29) was > 100 µM (inactive) and 63.7 µM (inactive) and the GI50 (TK-10) was > 100 µM (inactive). For the same compound, the GI50 (MDA-MB-435) was > 100 µM (inactive) and 74.1 µM (inactive), the GI50 (HCT-116) was > 100 µM (inactive) and the GI50 (SF-295) was > 100 µM (inactive). For the same compound, the GI50 (EKVX) was > 100 µM (inactive), the GI50 (SF-268) was 57.5 µM (inactive) and the GI50 (SF-539) was 18 µM (inactive).
